Consider 4 compounds from US5596018A, “Antiviral agents against aids-causing virus” (priority 1988, dated 1997).

Data set [1] deals with HIV-1. Description: Anti-HIV-1 assay in MT-4 cells, inhibition of viral cytopathogenicity. It is filed as cell-based. The conditions noted are these: for EC50: Human immunodeficiency virus 1, MT4, HIV-1, cytopathogenic effect, read-out: ED50 a: Antiviral 50% effective dose; for EC50 / SI: Selective index: MT-4 cells.
The subject of data set [2] is HIV-1. As to the kind of experiment: Anti-HIV-1 assay in HUT-78 cells, expression of viral antigen. The class given is cell-based. The following applies: for SI: Selective index / EC50: HUT-78 cells; for EC50: Human immunodeficiency virus 1, HuT78, HIV-1 antigen expression, read-out: ED50 a: Antiviral 50% effective dose.
A short description of another data set: in vitro. The conditions noted are these: human. As for the experimental part:
Anti-HIV assays of fuchsinic acid were carried out in cultures of MT-4 and HUT-78 cells infected with AIDS-causing viruses such as HIV type 1 (HIV-1) and HIV type 2 (HIV-2), taking cytopathogenicity as a parameter of the inhibitory effect on replication of the viruses. The anti-HIV activity was also measured by monitoring the expression of viral antigen.

The test system of another data set is HIV-2. Description: Anti-HIV-2 assay in MT-4 cells, inhibition of viral cytopathogenicity. It is filed as cell-based. The conditions noted are these: Human immunodeficiency virus 2, MT4; HIV-2, MT-4 cells, cytopathogenic effect; read-out: 50% effective dose (ED50) for HIV-2.

For `O=C(O)C1=CC(=C(c2ccc(O)c(C(=O)O)c2)c2ccc(O)c(C(=O)O)c2)C=CC1=O` [ATA, Aurintricarboxylic acid], the EC50 came to 5 µM in the data set with HIV-1 [1] and 0.69 µM with HIV-1 [2]. For the same compound, the figures for the “SI: Selective index” value in the data set with HIV-1 [1] and in the data set with HIV-1 [2] were 118 and 19, respectively. Also, the CC50 in the data set “in vitro” (hut-78 cells) came out at 13 µM; in the data set “in vitro” (mt-4 cells) it was 590 µM.
Take `O=C1C=CC(=C(c2ccc(O)cc2)c2ccc(O)cc2)C=C1` [Aurin]: the EC50 in the data set with HIV-1 [1] is over 2.6 µM; in the data set with HIV-1 [2] it was over 2.3 µM. Also, the “SI: Selective index” value with HIV-1 [1] and in the data set with HIV-1 [2] was under 1 throughout. In addition, the CC50 in “in vitro” (hut-78 cells) was 2.3 µM; in “in vitro” (mt-4 cells) it was 2.6 µM.
As for `Cc1cc(C(=C2C=CC(=N)C(S(=O)(=O)O)=C2)c2ccc(N)c(S(=O)(=O)O)c2)cc(S(=O)(=O)O)c1N` [Fuchsinic acid], in the data set with HIV-1 [1] (HIV-1, MT-4 cells, at 125 μM (FIG. 1-A)), the “Inhibition of cytopathogenic effect (CPE)” value is “complete inhibition”. The EC50 with HIV-1 [1] worked out at 42 µM; with HIV-1 [2] it was 16 µM; with HIV-2, 63 µM. The “SI: Selective index” value in the data set on HIV-1 [1] is given as under 74; in the data set on HIV-1 [2], under 39. Besides, the “Inhibition of HIV-1 antigen” value in the data set on HIV-1 [2] (at 25 μM) is “inhibited”. For the same compound, the cytotoxic concentration (CC50) is over 625 µM in “in vitro” (hut-78 cells) and over 3120 µM in “in vitro” (mt-4 cells).
Regarding `Cc1ccc(C(=O)Nc2ccc(S(=O)(=O)O)c3cc(S(=O)(=O)O)cc(S(=O)(=O)O)c23)cc1NC(=O)c1cccc(NC(=O)Nc2cccc(C(=O)Nc3cc(C(=O)Nc4ccc(S(=O)(=O)O)c5cc(S(=O)(=O)O)cc(S(=O)(=O)O)c45)ccc3C)c2)c1` [Suramin], the EC50 in the data set with HIV-1 [1] came out at 32 µM; with HIV-1 [2], 18 µM. In addition, the “SI: Selective index” value in the data set on HIV-1 [1] came out at 20; in the data set with HIV-1 [2], 3.1. Also, the CC50 in “in vitro” (hut-78 cells) was determined as 55 µM; in the data set “in vitro” (mt-4 cells) it was 625 µM.
